{
  "source": "patent US6909006B1",
  "about": "“Cyclopropylindole derivatives” (priority 1999, dated 2005)",
  "origin": "cited, not measured here",
  "tested_on": "tumour cells growing in vitro",
  "data": [
    {"smiles": "COc1c(O)c2c(c3cc(C(=O)N4CCc5c4c(O)c(OC)c4[nH]c(C(=O)N6CC7CC78C6=CC(=O)c6[nH]cc(C)c68)cc54)[nH]c13)CCN2C(N)=O", "note": "(stereo not shown) [CC-1065]", "values": [
      {"measurement": "IC50s in tumour cells growing in vitro", "result": "low pM range"}
    ]}
  ]
}
